Patent US12023319B2, “Carboxylic acid aromatic amides” (priority 2016, dated 2024)

Experiments:
Assay type in all cases: cell-based
[1] = target: T1, native human Bradykinin B1 receptor (Homo sapiens, UniProt P46663); assay: Calcium flux assay (FLIPR) with IMR-90 human fibroblasts expressing Bradykinin B1 receptor after IL-1beta induction (hB1 IMR-90); settings: IMR-90 human fibroblasts after IL-1beta induction, read-out: hB1 IMR90 IC50
T1 construct: which express native human Bradykinin B1 receptor after induction with human IL-1beta; Coriell Institute; host or cells: IMR-90 human foetal lung fibroblasts, induced with human IL-1beta
T1 sequence (P46663 1-353): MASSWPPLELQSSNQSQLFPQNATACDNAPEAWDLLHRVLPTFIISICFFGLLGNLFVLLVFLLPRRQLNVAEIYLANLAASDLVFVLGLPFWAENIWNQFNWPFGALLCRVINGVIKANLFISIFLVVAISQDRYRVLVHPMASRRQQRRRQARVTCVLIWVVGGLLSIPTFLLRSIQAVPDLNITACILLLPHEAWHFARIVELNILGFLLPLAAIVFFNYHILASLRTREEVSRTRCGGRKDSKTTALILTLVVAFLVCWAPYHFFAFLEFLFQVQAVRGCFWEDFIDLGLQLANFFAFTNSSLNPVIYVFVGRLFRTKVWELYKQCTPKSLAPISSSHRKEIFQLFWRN
Outline: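 IMR-90 foetal lung fibroblasts induced with 0.35 ng/mL IL-1beta for 3 h to express native B1 receptor, then loaded with 2.5 μM Fluo-4/AM plus 2.5 mM probenecid for 2 h at 37 °C. Calcium flux read by FLIPR; compounds at 8 concentrations in triplicate, full inhibition defined by 20 μM Lys-(Des-Arg-Leu)-Bradykinin; IC50 derived.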

[2] = system: Bradykinin B1 agonist-induced secretion of IL-6; assay: Bradykinin B1 agonist-induced secretion of IL-6 in human IMR-90 cells; settings: 30 min compound, then 0.1 μM Lys-[Des-Arg9]Bradykinin and 0.1 μM Sar-[D-Phe8]-des-Arg9-Bradykinin for 5 hours
From the text: (§1) 2. Inhibitory Activity on Bradykinin B1 Agonist-Induced Secretion of IL-6 and IL-8 in Human IMR-90 Cells
(§2) The effect of the Compound Examples on secretion of the cytokine IL-6 and IL-8 has been investigated in the human foetal lung fibroblast IMR-90 cell line. Here the induction of the cytokine secretion was induced by the Bradykinin B1 agonists Lys-[Des-Arg9]Bradykinin (CAS 71800-36-7, Tocris Bioscience) and Sar-[D-Phe8]-des-Arg9-Bradykinin (CAS 126959-88-4, Tocris Bioscience) leading to the activation of the Bradykinin B1-driven signalling pathway. The inhibitory activity of the tested Compound Examples on Bradykinin B1 agonist-induced secretion of IL-6 and IL-8 is indicative for the compounds' prominent anti-inflammatory mode of action in kinin driven inflammation.
(§3) IMR-90 cells were cultured in Eagle's Minimum Essential Medium (EMEM) containing 2 mM L-glutamine, 1 g/L glucose, 1.5 g/L NaHCO3, 1 mM sodium pyruvate and non-essential amino acids (ATCC, 30-2003™) supplemented with 10% FBS (Biochrom, S0615) and 50 U/mL Penicillin, 50 μg/mL Streptomycin (PAA, P11-010). The assay was performed in EMEM and a cell density of […] IMR-90 cells/96-well. The Compound Examples have been serial diluted in 100% DMSO and evaluated at 8 different concentrations within the range of 3 nM and 10 μM and a final DMSO concentration of 0.4%. The IMR-90 cells have been incubated with the respective concentration of the compound for 30 min. The enhanced secretion of IL-6 and IL-8 was induced by the stimulation of these cells with 0.1 μM Lys-[Des-Arg9]Bradykinin (Tocris, catalogue no. 3225) and 0.1 μM Sar-[D-Phe8]-des-Arg9-Bradykinin (Tocris, catalogue no. 3230) for 5 hours at 37° C. and 5% CO2. Further, cells have been treated with Lys-[Des-Arg9]Bradykinin and Sar[D-Phe8]-des-Arg9-Bradykinin as neutral control and with 0.1% DMSO as inhibitor control. The amount of IL-6 and IL-8 in the supernatant was determined using the Human ProInflammatory Panel II (4-Plex) (MSD, K15025B) according to manufacturer's instruction. Briefly, supernatants were added onto assay plates and incubated at room temperature for 1-2 h with vigorous shaking at 600 rpm. Detection antibodies were then added onto the supernatants and incubated at room temperature for an additional 1-2 h with vigorous shaking at 600 rpm. Plates were washed three times with phosphate-buffered saline (PBS; 137 mM NaCl, 2.7 mM KC1, 6.5 mM Na2HP04, 1.7 mM KH2P04) containing 0.05% Tween-20 (Bio-Rad, 161-0781) and electrochemiluminescence detected using the MSD Sector Imager 6000 plate reader. The cell viability was measured using the CellTiter-Glo Luminescent Assay (Promega, G7571) following the manufacturers protocol. Briefly, the CellTiter-Glo Reagent was diluted with PBS (1:1) and added directly to cells. After incubation and shaking for 10 minutes luminescent signal was measured which is proportional to the amount of ATP present.
(§4) The effect of the compound on the amount of secreted cytokine has been calculated as 100/(measured cytokine concentration of neutral control-measured cytokine concentration of inhibitor control)*(measured cytokine concentration of compound dose-measured cytokine concentration of inhibitor control). IC50 values are determined using 4-parameter-fit.
(§5) The Compound Examples were tested in triplicates per plate and the inhibitory activity was determined as the relation between neutral and inhibitor control in percent. IC50 values were calculated using the 4-parameter logistic model.

[3] = system: Bradykinin B1 agonist-induced secretion of IL-8; assay: Bradykinin B1 agonist-induced secretion of IL-8 in human IMR-90 cells; settings: 30 min compound, then 0.1 μM Lys-[Des-Arg9]Bradykinin and 0.1 μM Sar-[D-Phe8]-des-Arg9-Bradykinin for 5 hours
From the text: as §1, §2, §3, §4, §5

Row | SMILES | IC50 [1] [nM] | IC50 [2] [nM] | IC50 [3] [nM]
1 | O=C(O)c1cc(NC(=O)C2(c3ccc(C(F)(F)F)cc3F)CC2)ccc1-c1cc2ccccc2s1 [Example 1, 2-(1-Benzothiophen-2-yl)-5-[({1-[2-fluoro-4-(trifluoromethyl)phenyl]cyclopropyl}carbonyl)amino]benzoic acid] | 72 | 149 | 245
2 | O=C(O)c1cc(NC(=O)C2(c3ccc(C(F)(F)F)cc3F)CC2)ccc1-c1cnn(C2CCC2)c1 [Example 3, 2-(1-Cyclobutyl-1H-pyrazol-4-yl)-5-[({1-[2-fluoro-4-(trifluoromethyl)phenyl]cyclopropyl}carbonyl)amino]benzoic acid] | 12 | 47 | 53
3 | CCC(F)(F)c1ccc(-c2ccc(NC(=O)C3(c4ccc(C(F)(F)F)cc4F)CC3)cc2C(=O)O)cn1 [Example 2, 2-[6-(1,1-Difluoropropyl)pyridin-3-yl]-5-[({1-[2-fluoro-4-(trifluoromethyl)-phenyl]cyclopropyl}carbonyl)amino]benzoic acid] | 44 | 113 | 303

The remaining lines, values ahead:

Row | IC50 [1] [nM] | IC50 [2] [nM] | IC50 [3] [nM] | SMILES
4 | 2700 | 290 | 483 | O=C(O)c1cc(NC(=O)C2(c3ccc(OC(F)(F)F)cc3F)CC2)ccc1-c1ccc(C(F)F)nc1 [Example 5, 2-[6-(Difluoromethyl)pyridin-3-yl]-5-[({1-[2-fluoro-4-(trifluoromethoxy)phenyl]cyclopropyl}carbonyl)amino]benzoic acid]
5 | 21 | 600 | 489 | O=C(O)c1cc(NC(=O)C2(c3ccc(C(F)(F)F)cc3F)CC2)cc(F)c1-c1ccc(C(F)(F)F)nc1 [Example 29, 3-Fluoro-5-[({1-[2-fluoro-4-(trifluoromethyl)phenyl]cyclopropyl}carbonyl)amino]-2-[6-(trifluoromethyl)pyridin-3-yl]benzoic acid]
6 | 550 | 443 | 205 | O=C(O)c1cc(NC(=O)C2(c3ccc(C(F)(F)F)cc3F)CC2)ccc1-c1ccc(C(F)(F)F)nc1 [Example 6, 5-[({1-[2-Fluoro-4-(trifluoromethyl)phenyl]cyclopropyl}carbonyl)amino]-2-[6-(trifluoromethyl)pyridin-3-yl]benzoic acid]
7 | 4.1 | 70 | 85 | O=C(O)c1cc(NC(=O)C2(c3ccc(C(F)(F)F)cc3F)CC2)cc(F)c1-c1cnn(C2CCC2)c1 [Example 42, 2-(1-Cyclobutyl-1H-pyrazol-4-yl)-3-fluoro-5-[({1-[2-fluoro-4-(trifluoromethyl)phenyl]cyclopropyl}carbonyl)amino]benzoic acid]
